Numbers after ± are expanded uncertainties.
Assay: xn = mol fraction of the nth substance listed
Settings: 101 kPa, Liquid; for viscosity: Falling or rolling sphere viscometry; for mass density: Vibrating tube method

CCCC[NH3+].O=[N+]([O-])[O-] [n-butylammonium nitrate] + CCO
Settings	mass density, 293.15 K [kg/m3]	mass density, 298.15 K [kg/m3]	mass density, 303.15 K [kg/m3]	mass density, 308.15 K [kg/m3]	mass density, 313.15 K [kg/m3]	viscosity, 293.15 K [mPa·s]	viscosity, 298.15 K [mPa·s]	viscosity, 303.15 K [mPa·s]	viscosity, 308.15 K [mPa·s]	viscosity, 313.15 K [mPa·s]
x1 = 0.0995	858.45 ± 0.18	854.53 ± 0.18	850.59 ± 0.18	846.63 ± 0.18	842.66 ± 0.19	2.5 ± 0.021	2.251 ± 0.019	2.036 ± 0.017	1.846 ± 0.016	1.682 ± 0.014
x1 = 0.1997	910.07 ± 0.3	906.36 ± 0.3	902.64 ± 0.3	898.9 ± 0.3	895.16 ± 0.3	4.379 ± 0.043	3.895 ± 0.038	3.486 ± 0.034	3.134 ± 0.031	2.827 ± 0.028
x1 = 0.2999	951.56 ± 0.55	947.99 ± 0.55	944.41 ± 0.54	940.85 ± 0.54	937.28 ± 0.54	7.388 ± 0.084	6.633 ± 0.076	5.868 ± 0.067	5.192 ± 0.059	4.591 ± 0.052
x1 = 0.3998	985.07 ± 0.93	981.61 ± 0.92	978.16 ± 0.92	974.71 ± 0.91	971.27 ± 0.91	12.29 ± 0.16	10.67 ± 0.14	9.285 ± 0.12	8.205 ± 0.11	7.25 ± 0.096
x1 = 0.5005	1012.9 ± 1.5	1009.57 ± 1.4	1006.2 ± 1.4	1003.2 ± 1.4	999.76 ± 1.4	18.53 ± 0.28	15.89 ± 0.24	13.78 ± 0.21	12.04 ± 0.18	10.57 ± 0.16
x1 = 0.6501	1047.63 ± 2.6	1044.37 ± 2.5	1041.1 ± 2.5	1037.86 ± 2.5	1034.62 ± 2.5	32.66 ± 0.6	27.42 ± 0.5	23.15 ± 0.42	19.83 ± 0.36	17.12 ± 0.31
x1 = 0.8003	1075.57 ± 4	1072.36 ± 4	1069.17 ± 4	1066 ± 4	1062.84 ± 3.9	56.97 ± 1.2	46.57 ± 1	38.82 ± 0.84	32.55 ± 0.7	27.74 ± 0.6
x1 = 0.8989	1090.94 ± 5.2	1087.76 ± 5.2	1084.6 ± 5.2	1081.46 ± 5.1	1078.34 ± 5.1	79.51 ± 2.2	65.34 ± 1.6	53.93 ± 1.2	44.86 ± 1.1	37.86 ± 0.9
x1 = 1	1104.68 ± 6.6	1101.52 ± 6.6	1098.38 ± 6.5	1095.26 ± 6.5	1092.17 ± 6.5	111.35 ± 4.1	89.95 ± 2.9	73.04 ± 2.1	60.25 ± 1.6	50.12 ± 1.3

CCCC[NH3+].O=[N+]([O-])[O-] [n-butylammonium nitrate] + CCCCO
Settings	mass density, 293.15 K [kg/m3]	mass density, 298.15 K [kg/m3]	mass density, 303.15 K [kg/m3]	mass density, 308.15 K [kg/m3]	mass density, 313.15 K [kg/m3]	viscosity, 293.15 K [mPa·s]	viscosity, 298.15 K [mPa·s]	viscosity, 303.15 K [mPa·s]	viscosity, 308.15 K [mPa·s]	viscosity, 313.15 K [mPa·s]
x1 = 0.1004	851.35 ± 0.18	847.7 ± 0.18	844.02 ± 0.18	840.32 ± 0.18	836.6 ± 0.18	5.242 ± 0.045	4.554 ± 0.039	3.985 ± 0.034	3.506 ± 0.03	3.099 ± 0.026
x1 = 0.1999	888.16 ± 0.29	884.59 ± 0.29	881 ± 0.29	877.4 ± 0.29	873.79 ± 0.29	–	6.852 ± 0.067	5.961 ± 0.058	5.217 ± 0.051	4.592 ± 0.045
x1 = 0.2993	922.05 ± 0.53	918.6 ± 0.52	915.12 ± 0.52	911.54 ± 0.52	908.03 ± 0.52	11.36 ± 0.13	9.747 ± 0.11	8.447 ± 0.096	7.302 ± 0.083	6.344 ± 0.072
x1 = 0.3992	953.58 ± 0.88	950.14 ± 0.88	946.7 ± 0.87	943.25 ± 0.87	939.81 ± 0.86	17.51 ± 0.23	14.95 ± 0.2	12.76 ± 0.17	11.03 ± 0.15	9.601 ± 0.13
x1 = 0.4955	982.07 ± 1.4	978.69 ± 1.4	975.31 ± 1.3	971.93 ± 1.3	968.56 ± 1.3	24.22 ± 0.37	20.34 ± 0.31	17.34 ± 0.26	14.86 ± 0.23	12.88 ± 0.2
x1 = 0.6508	1024.4 ± 2.4	1021.11 ± 2.4	1017.81 ± 2.4	1014.53 ± 2.4	1011.26 ± 2.4	38.67 ± 0.71	31.95 ± 0.59	26.79 ± 0.49	22.66 ± 0.42	19.51 ± 0.36
x1 = 0.801	1061.11 ± 3.9	1057.88 ± 3.9	1054.67 ± 3.9	1051.47 ± 3.9	1048.29 ± 3.8	60.58 ± 1.3	49.4 ± 1.1	40.82 ± 0.89	34.2 ± 0.74	28.96 ± 0.63
x1 = 0.8998	1083.71 ± 5.2	1080.52 ± 5.1	1077.34 ± 5.1	1074.19 ± 5.1	1071.05 ± 5	83.12 ± 2.4	68.14 ± 1.7	56.15 ± 1.3	46.69 ± 1.1	39.11 ± 0.93
x1 = 1	1104.68 ± 6.6	1101.52 ± 6.6	1098.38 ± 6.5	1095.26 ± 6.5	1092.17 ± 6.5	111.35 ± 4.1	89.95 ± 2.9	73.04 ± 2.1	60.25 ± 1.6	50.12 ± 1.3

CCCC[NH3+].O=[N+]([O-])[O-] [n-butylammonium nitrate] + CO
Settings	mass density, 293.15 K [kg/m3]	mass density, 298.15 K [kg/m3]	mass density, 303.15 K [kg/m3]	mass density, 308.15 K [kg/m3]	mass density, 313.15 K [kg/m3]	viscosity, 293.15 K [mPa·s]	viscosity, 298.15 K [mPa·s]	viscosity, 303.15 K [mPa·s]	viscosity, 308.15 K [mPa·s]	viscosity, 313.15 K [mPa·s]
x1 = 0.0999	884.86 ± 0.19	880.73 ± 0.19	876.67 ± 0.19	872.57 ± 0.19	868.45 ± 0.2	1.377 ± 0.012	1.267 ± 0.011	1.173 ± 0.01	1.119 ± 0.01	1.014 ± 0.009
x1 = 0.1998	944.76 ± 0.31	940.97 ± 0.31	937.17 ± 0.31	933.38 ± 0.31	929.59 ± 0.31	2.723 ± 0.027	2.466 ± 0.024	2.248 ± 0.022	2.058 ± 0.02	1.893 ± 0.019
x1 = 0.3012	987.04 ± 0.57	983.43 ± 0.57	979.82 ± 0.57	976.23 ± 0.57	972.64 ± 0.57	4.923 ± 0.057	4.382 ± 0.05	3.934 ± 0.045	3.555 ± 0.041	3.229 ± 0.037
x1 = 0.4005	1016.59 ± 0.98	1013.11 ± 0.98	1009.64 ± 0.97	1006.18 ± 0.96	1002.74 ± 0.95	9.129 ± 0.12	8 ± 0.11	7.037 ± 0.094	6.242 ± 0.083	5.584 ± 0.074
x1 = 0.5015	1039.93 ± 1.6	1036.55 ± 1.5	1033.17 ± 1.5	1029.82 ± 1.5	1026.48 ± 1.5	14.79 ± 0.23	12.8 ± 0.2	11.16 ± 0.17	9.779 ± 0.15	8.66 ± 0.13
x1 = 0.6507	1065.48 ± 2.7	1062.21 ± 2.6	1058.95 ± 2.6	1055.7 ± 2.6	1052.47 ± 2.6	28.64 ± 0.53	24.08 ± 0.44	20.59 ± 0.38	17.77 ± 0.33	15.5 ± 0.28
x1 = 0.8007	1085.18 ± 4.1	1081.98 ± 4.1	1078.78 ± 4.1	1075.61 ± 4	1072.46 ± 4	51.33 ± 1	42.07 ± 0.91	35.23 ± 0.76	29.65 ± 0.64	25.41 ± 0.55
x1 = 0.9007	1096.21 ± 5.3	1093.04 ± 5.3	1089.88 ± 5.2	1086.74 ± 5.2	1083.63 ± 5.2	77.73 ± 2.1	64.34 ± 1.6	53.02 ± 1.2	44.24 ± 1.1	37.21 ± 0.89
x1 = 1	1104.68 ± 6.6	1101.52 ± 6.6	1098.38 ± 6.5	1095.26 ± 6.5	1092.17 ± 6.5	111.35 ± 4.1	89.95 ± 2.9	73.04 ± 2.1	60.25 ± 1.6	50.12 ± 1.3

CCCC[NH3+].O=[N+]([O-])[O-] [n-butylammonium nitrate] + CCCO
Settings	mass density, 293.15 K [kg/m3]	mass density, 298.15 K [kg/m3]	mass density, 303.15 K [kg/m3]	mass density, 308.15 K [kg/m3]	mass density, 313.15 K [kg/m3]	viscosity, 293.15 K [mPa·s]	viscosity, 298.15 K [mPa·s]	viscosity, 303.15 K [mPa·s]	viscosity, 308.15 K [mPa·s]	viscosity, 313.15 K [mPa·s]
x1 = 0.0999	855.12 ± 0.18	851.36 ± 0.18	847.56 ± 0.18	843.75 ± 0.18	839.91 ± 0.18	4.091 ± 0.035	3.599 ± 0.031	3.182 ± 0.027	2.824 ± 0.024	2.516 ± 0.021
x1 = 0.2004	898.27 ± 0.3	894.64 ± 0.3	890.99 ± 0.3	887.32 ± 0.3	883.65 ± 0.3	6.691 ± 0.065	5.828 ± 0.057	5.108 ± 0.05	4.503 ± 0.044	3.989 ± 0.039
x1 = 0.2994	935.27 ± 0.54	931.74 ± 0.53	928.19 ± 0.53	924.64 ± 0.53	921.09 ± 0.53	10.45 ± 0.12	8.998 ± 0.1	7.81 ± 0.089	6.822 ± 0.078	6.009 ± 0.068
x1 = 0.4007	968.52 ± 0.91	965.08 ± 0.9	961.63 ± 0.9	958.18 ± 0.89	954.74 ± 0.89	16.54 ± 0.22	14.11 ± 0.19	12.11 ± 0.16	10.49 ± 0.14	9.207 ± 0.12
x1 = 0.4995	997.32 ± 1.4	993.96 ± 1.4	990.59 ± 1.4	987.23 ± 1.4	983.88 ± 1.4	22.52 ± 0.34	19.08 ± 0.29	16.29 ± 0.25	14.05 ± 0.21	12.19 ± 0.19
x1 = 0.6495	1035.44 ± 2.5	1032.16 ± 2.5	1028.88 ± 2.5	1025.62 ± 2.4	1022.36 ± 2.4	38.05 ± 0.7	31.62 ± 0.58	26.59 ± 0.49	22.59 ± 0.41	19.39 ± 0.36
x1 = 0.7978	1067.64 ± 4	1064.42 ± 3.9	1061.21 ± 3.9	1058.02 ± 3.9	1054.86 ± 3.9	61.01 ± 1.3	49.83 ± 1.1	41.2 ± 0.89	34.54 ± 0.75	29.21 ± 0.63
x1 = 0.9008	1087.69 ± 5.2	1084.51 ± 5.2	1081.34 ± 5.2	1078.19 ± 5.1	1075.07 ± 5.1	83.36 ± 2.4	67.14 ± 1.7	55.16 ± 1.3	46.11 ± 1.1	40.09 ± 0.96
x1 = 1	1104.68 ± 6.6	1101.52 ± 6.6	1098.38 ± 6.5	1095.26 ± 6.5	1092.17 ± 6.5	111.35 ± 4.1	89.95 ± 2.9	73.04 ± 2.1	60.25 ± 1.6	50.12 ± 1.3
